Legend:
p300/β-catenin complex [1] = biological target: T1, p300/β-catenin complex (Homo sapiens, UniProt Q09472); assay: Co-immunoprecipitation of β-catenin with p300 in SW480 cells; format: cell-based; conditions: SW480 cells, 5 or 10 μM, 24 hours
T1 construct: endogenous in cells; host or cells: SW480
Experimental: (§1) FIG. 3. COMPOUND 1 disrupts the β-catenin/CBP complex but not the p300/β-catenin complex. • A. Full-length Xenopus laevis β-catenin (1.1, 2.2, and 3.3 μg) or murine CBP (0.14, 0.28, 0.55, 1.1, and 2.2 μg) plasmids were cotransfected in SW480 cells along with the β-catenin/TCF (1.1 μg) reporter gene construct. Empty pcDNA3 vector was used to equalize the amount of DNA used in each reaction. Dual luciferase assays were performed 24 hours post COMPOUND 1 treatment. All experiments were performed in duplicate and values plotted as means +/−standard deviation. • B. COMPOUND 1 competes with β-catenin for CBP. SW480 cells were treated with 5 or 10 μM of COMPOUND 1 or control (0.5% DMSO). 24 hours post treatment, lysates were incubated with beads coated with either control the antibody, or anti-CBP, or anti-p300 antibodies. Co-immunoprecipitated proteins were subjected to gel electrophoresis and immunoblotting using anti-β-catenin antibodies. The arrows point to the immunoprecipitated β-catenin (doublets). • C. CBP (1-111) is the minimal region of interaction with β-catenin. SW480 cells transfected with a CBP deletion series were subjected to immunoprecipitation using anti-β-catenin antibodies coated on Protein A-agarose beads. The immune complexes were washed and subjected to gel electrophoresis followed by immunoblotting using anti-His antibodies. […]
T1 sequence (Q09472 2-2414, one chain of several): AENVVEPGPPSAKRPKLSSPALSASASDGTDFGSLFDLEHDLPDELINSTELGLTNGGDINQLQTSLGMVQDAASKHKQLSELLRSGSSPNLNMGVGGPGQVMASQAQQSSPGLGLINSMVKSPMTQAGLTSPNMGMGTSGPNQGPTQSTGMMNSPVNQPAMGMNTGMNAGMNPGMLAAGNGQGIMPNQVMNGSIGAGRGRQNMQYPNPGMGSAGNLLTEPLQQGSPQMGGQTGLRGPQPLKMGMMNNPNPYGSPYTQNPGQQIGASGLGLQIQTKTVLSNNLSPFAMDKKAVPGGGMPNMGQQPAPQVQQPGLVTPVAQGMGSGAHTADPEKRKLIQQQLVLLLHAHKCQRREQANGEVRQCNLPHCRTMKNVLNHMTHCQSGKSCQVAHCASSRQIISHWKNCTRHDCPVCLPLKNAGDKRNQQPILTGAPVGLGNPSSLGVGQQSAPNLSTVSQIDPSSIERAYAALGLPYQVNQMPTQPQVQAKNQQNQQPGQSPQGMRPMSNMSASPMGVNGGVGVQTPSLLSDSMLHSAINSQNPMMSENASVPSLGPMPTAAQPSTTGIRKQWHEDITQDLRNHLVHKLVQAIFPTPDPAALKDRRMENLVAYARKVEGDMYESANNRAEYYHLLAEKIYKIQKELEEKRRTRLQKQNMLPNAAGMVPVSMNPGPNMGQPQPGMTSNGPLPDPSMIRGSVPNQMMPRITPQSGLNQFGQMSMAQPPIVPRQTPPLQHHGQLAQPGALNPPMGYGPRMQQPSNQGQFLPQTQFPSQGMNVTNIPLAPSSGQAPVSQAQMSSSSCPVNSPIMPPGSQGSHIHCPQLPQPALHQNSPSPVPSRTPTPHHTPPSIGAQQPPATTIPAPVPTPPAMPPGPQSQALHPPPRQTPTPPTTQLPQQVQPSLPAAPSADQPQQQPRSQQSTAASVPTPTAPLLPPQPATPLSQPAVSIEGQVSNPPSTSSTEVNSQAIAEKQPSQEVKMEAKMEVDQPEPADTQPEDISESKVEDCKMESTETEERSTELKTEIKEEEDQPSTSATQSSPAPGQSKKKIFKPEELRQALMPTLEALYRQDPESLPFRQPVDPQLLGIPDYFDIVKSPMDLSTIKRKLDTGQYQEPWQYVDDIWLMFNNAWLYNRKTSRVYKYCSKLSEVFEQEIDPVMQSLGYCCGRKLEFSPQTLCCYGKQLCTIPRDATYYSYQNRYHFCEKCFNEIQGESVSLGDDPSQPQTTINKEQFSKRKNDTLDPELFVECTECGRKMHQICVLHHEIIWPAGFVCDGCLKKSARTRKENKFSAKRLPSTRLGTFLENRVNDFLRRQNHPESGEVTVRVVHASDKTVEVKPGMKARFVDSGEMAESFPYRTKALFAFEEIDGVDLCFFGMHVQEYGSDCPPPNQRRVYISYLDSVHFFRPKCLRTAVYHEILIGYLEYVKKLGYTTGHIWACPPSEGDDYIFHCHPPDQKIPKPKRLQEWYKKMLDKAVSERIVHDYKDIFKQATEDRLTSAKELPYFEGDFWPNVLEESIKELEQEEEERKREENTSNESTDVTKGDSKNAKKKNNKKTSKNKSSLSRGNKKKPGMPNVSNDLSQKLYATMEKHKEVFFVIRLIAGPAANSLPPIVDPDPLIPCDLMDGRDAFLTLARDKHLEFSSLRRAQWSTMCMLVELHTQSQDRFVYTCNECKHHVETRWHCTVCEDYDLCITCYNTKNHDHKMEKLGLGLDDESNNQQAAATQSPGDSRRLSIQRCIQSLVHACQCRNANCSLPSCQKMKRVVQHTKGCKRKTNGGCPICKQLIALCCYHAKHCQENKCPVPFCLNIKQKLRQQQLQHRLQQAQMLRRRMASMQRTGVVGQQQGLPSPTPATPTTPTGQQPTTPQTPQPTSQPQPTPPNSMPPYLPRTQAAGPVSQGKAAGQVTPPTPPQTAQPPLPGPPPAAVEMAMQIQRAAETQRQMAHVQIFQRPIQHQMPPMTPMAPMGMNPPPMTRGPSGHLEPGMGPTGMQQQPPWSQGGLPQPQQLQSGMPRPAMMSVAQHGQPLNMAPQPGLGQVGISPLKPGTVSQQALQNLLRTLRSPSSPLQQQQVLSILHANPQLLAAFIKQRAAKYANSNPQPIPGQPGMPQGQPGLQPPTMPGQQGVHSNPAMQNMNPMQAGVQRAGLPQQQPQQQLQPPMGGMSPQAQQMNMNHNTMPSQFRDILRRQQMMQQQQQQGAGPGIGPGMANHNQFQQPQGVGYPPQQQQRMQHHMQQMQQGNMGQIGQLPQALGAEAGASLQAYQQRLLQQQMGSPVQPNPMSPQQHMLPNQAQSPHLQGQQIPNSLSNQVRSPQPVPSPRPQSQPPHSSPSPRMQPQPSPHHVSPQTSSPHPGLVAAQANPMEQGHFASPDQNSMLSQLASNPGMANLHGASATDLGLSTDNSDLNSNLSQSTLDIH

p300/β-catenin complex [2] = biological target: T2, p300/β-catenin complex (Homo sapiens, UniProt Q09472); assay: as above; format: cell-based; conditions: p300 (1-111), (1-211), (1-351), 50 μM COMPOUND 1
T2 construct: endogenous in cells; host or cells: SW480
Experimental: as §1
T2 sequence (Q09472 1-111, one chain of several): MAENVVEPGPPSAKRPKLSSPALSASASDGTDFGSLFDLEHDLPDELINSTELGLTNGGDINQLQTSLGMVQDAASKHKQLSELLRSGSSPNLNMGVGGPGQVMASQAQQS

SW480 cells = assay: Soft agar colony formation assay with SW480 cells; format: cell-based, human

For `O=C1C(Cc2ccc(O)cc2)N2C(=O)CCN(C(=O)NCc3ccccc3)C2CN1Cc1cccc2ccccc12` (stereo not shown) [COMPOUND 1], which “Binding of β-catenin to p300 (immunoprecipitation)” value (p300/β-catenin complex [1]) is on record?
The value was “did not interfere”.

And the “p300 fragments binding to immunoprecipitated β-catenin in presence of excess COMPOUND 1” value (p300/β-catenin complex [2])?
The value was “had no effect”.

What about the “Number of colonies formed in soft agar” value (SW480 cells; 0.25-5 μM) of the same compound?
Its value is “dose dependent decrease”.

And the IC50 (SW480 cells; 5000 cells/well, colonies counted after 8 days)?
The IC50 was 870 ± 110 nM.
